The values below come from patent US20120270905A1, “FLUORINATED 2,6-DIALKYL-3,5-DICYANO-4-(1H-INDAZOL-5-YL)-1,4-DIHYDROPYRIDINES AND METHODS OF USE THEREOF” (BAYER PHARMA AKTIENGESELLSCHAFT, priority 2009, published 2012).

Series [1] is described as follows: Caco-2 permeability assay. As to conditions: human, apical to basolateral, test concentration 2 μM, 2 h at 37° C., read-out: Caco-2 permeability PappA-B. The class given is in vitro ADME. The text has this: Caco-2 Permeability Assay:
The in vitro permeation of a test compound across a Caco-2 cell monolayer is a well-established assay system to predict the permeability from the gastro-intestinal tract [cf. P. Artursson and J. Karlsson: Correlation between oral drug absorption in humans and apparent drug permeability coefficients in human intestinal epithelial (Caco-2) cells, Biochem. Biophys. 175 (3), 880-885 (1991)]. The permeability of the compounds of the present invention in such Caco-2 cells was deter-mined as described below:
Human Caco-2 cells (ACC No. 169, DSMZ, German Collection of Microorganisms and Cell Cultures, Braunschweig, Germany) are seeded on 24-well insert plates and are allowed to grow for 14-16 days. For permeability studies, the test compounds are dissolved in DMSO and diluted to the final test concentration of 2 μM with transport buffer [Hanks' Buffered Salt Solution, Gibco/Invitrogen, further supplemented with glucose (final concentration 19.9 mM) and HEPES (final concentration 9.8 mM)]. For determination of the apical to basolateral permeability (PappA-B), the test compound solution is added to the apical side of the cell monolayer and transport buffer to the basolateral side of the monolayer; for determination of the basolateral to apical permeability (PappB-A), the test compound solution is added to the basolateral side of the cell monolayer and transport buffer to the apical side of the monolayer. Samples are taken from the donor compartment at the beginning of the experiment to confirm mass balance. After an incubation of 2 h at 37° C., samples are taken from both compartments. Samples are analyzed by LC-MS/MS, and the apparent permeability coefficients are calculated. Lucifer Yellow permeability is assayed for each cell monolayer to ensure cell monolayer integrity, and the permeability of Atenolol (low permeability marker) and Sulfasalazine (marker for active excretion) is determined for each batch as quality control. […]

Series [2] addresses T1, Recombinant human c-Met protein (Homo sapiens, UniProt P08581).
T1 construct: purchased Invitrogen
The series can be described thus: c-Met receptor tyrosine kinase activity assay (NADH read-out). The format is biochemical. To be noted: c-Met 30 nM, ATP 30 μM, 100 min at 32° C. As to the method: c-Met Receptor Tyrosine Kinase Activity Assay (NADH Read-Out):
Recombinant human c-Met protein (Invitrogen, Carlsbad, Calif., USA) is used. As substrate for the kinase reaction the peptide KKKSPGEYVNIEFG (JPT, Germany) is used. For the assay, 1 μL of a 51-fold concentrated solution of the test compound in DMSO is pipetted into a white 384-well microtiter plate (Greiner Bio-One, Frickenhausen, Germany). 25 μL of a solution of c-Met (final concentration 30 nM) and pyruvate kinase/lactate dehydrogenase (Roche Diagnostics, Mannheim, Germany; final concentration 8 mg/L) in assay buffer [3-(N-morpholino)propanesulfonic acid (MOPS), 50 mM, pH 7; MgCl2, 10 mM; bovine serum albumin (BSA), 0.01%; Triton X 100, 0.01%; DTT, 2 mM] are added, and the mixture is incubated for 5 min at room temperature. Then, the kinase reaction is started by the addition of 25 μL of a solution of adenosine triphosphate (ATP, final concentration 30 μM), substrate (final concentration 100 μM), nicotinamide adenine dinucleotide (NADH, final concentration 50 μM) and dithiothreitol (DTT, final concentration 2 mM) in assay buffer, and the resulting mixture is incubated for a reaction time of 100 min at 32° C.
Subsequently, the amount of phosphorylated substrate is evaluated by measurement of the decrease of NADH fluorescence. Therefore, the fluorescence emissions at 465 nm after excitation at 340 nm is measured in a fluorescence reader, e.g. Tecan Ultra (Tecan, Männedorf, Switzerland). The data are normalised (enzyme reaction without inhibitor=0% inhibition; all other assay components but no enzyme=100% inhibition).
Some representative IC50 values are listed in Table 1 below together with corresponding data for a structurally related, non-fluorinated compound from prior art (cf. WO 2008/071451): […]

The target of series [3] is T2, recombinant kinase domain of the human c-Met (amino acids 960-1390) (Homo sapiens, UniProt P08581).
T2 construct: kinase domain of the human c-Met (amino acids 960-1390); His6 (N); made in house; host or cells: insect cells (SF21)
T2 sequence (P08581 960-1390): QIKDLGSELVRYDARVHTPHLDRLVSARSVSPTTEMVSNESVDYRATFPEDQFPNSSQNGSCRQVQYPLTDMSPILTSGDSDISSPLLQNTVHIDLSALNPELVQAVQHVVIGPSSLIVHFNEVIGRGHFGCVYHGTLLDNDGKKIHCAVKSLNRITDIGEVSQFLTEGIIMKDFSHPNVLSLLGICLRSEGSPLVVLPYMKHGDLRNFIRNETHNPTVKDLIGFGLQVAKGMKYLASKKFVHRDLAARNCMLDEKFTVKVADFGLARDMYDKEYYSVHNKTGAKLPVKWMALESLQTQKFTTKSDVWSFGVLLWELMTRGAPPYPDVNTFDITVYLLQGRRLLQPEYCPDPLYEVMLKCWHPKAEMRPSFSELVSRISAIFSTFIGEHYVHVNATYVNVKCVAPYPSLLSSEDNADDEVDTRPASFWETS
The series can be described thus: c-Met receptor tyrosine kinase homogeneous time-resolved fluorescence assay (alternative format). The format is biochemical. As to conditions: HTRF format; ATP 10 μM, 30 min at 22° C. An excerpt:
c-Met Receptor Tyrosine Kinase Homogeneous Time-Resolved Fluorescence Assay (Alternative Format):
The N-terminally His6-tagged recombinant kinase domain of the human c-Met (amino acids 960-1390), expressed in insect cells (SF21) and purified by Ni-NTA affinity chromatography and consecutive size exclusion chromatography (Superdex 200), is used. Alternatively, commercially available c-Met (Millipore) can be used. As substrate for the kinase reaction, the biotinylated poly-Glu,Tyr (4:1) copolymer (#61GT0BLC, Cis Biointernational, Marcoule, France) is used.
For the assay, 50 nL of a 100-fold concentrated solution of the test compound in DMSO is pipetted into a black low-volume 384-well microtiter plate (Greiner Bio-One, Frickenhausen, Germany). […]
The resulting mixture is incubated for 1 h at 22° C. to allow the binding of the biotinylated phosphorylated peptide to the streptavidine-XLent and the PT66-Eu-chelate. Subsequently, the amount of phosphorylated substrate is evaluated by measurement of the resonance energy transfer from the PT66-Eu-chelate to the streptavidine-XLent. Therefore, the fluorescence emissions at 620 nm and 665 nm after excitation at 350 nm are measured in an HTRF reader, e.g. Rubystar (BMG Lab-technologies, Offenburg, Germany) or Viewlux (Perkin-Elmer). […]

T1 sequence (P08581 25-1390): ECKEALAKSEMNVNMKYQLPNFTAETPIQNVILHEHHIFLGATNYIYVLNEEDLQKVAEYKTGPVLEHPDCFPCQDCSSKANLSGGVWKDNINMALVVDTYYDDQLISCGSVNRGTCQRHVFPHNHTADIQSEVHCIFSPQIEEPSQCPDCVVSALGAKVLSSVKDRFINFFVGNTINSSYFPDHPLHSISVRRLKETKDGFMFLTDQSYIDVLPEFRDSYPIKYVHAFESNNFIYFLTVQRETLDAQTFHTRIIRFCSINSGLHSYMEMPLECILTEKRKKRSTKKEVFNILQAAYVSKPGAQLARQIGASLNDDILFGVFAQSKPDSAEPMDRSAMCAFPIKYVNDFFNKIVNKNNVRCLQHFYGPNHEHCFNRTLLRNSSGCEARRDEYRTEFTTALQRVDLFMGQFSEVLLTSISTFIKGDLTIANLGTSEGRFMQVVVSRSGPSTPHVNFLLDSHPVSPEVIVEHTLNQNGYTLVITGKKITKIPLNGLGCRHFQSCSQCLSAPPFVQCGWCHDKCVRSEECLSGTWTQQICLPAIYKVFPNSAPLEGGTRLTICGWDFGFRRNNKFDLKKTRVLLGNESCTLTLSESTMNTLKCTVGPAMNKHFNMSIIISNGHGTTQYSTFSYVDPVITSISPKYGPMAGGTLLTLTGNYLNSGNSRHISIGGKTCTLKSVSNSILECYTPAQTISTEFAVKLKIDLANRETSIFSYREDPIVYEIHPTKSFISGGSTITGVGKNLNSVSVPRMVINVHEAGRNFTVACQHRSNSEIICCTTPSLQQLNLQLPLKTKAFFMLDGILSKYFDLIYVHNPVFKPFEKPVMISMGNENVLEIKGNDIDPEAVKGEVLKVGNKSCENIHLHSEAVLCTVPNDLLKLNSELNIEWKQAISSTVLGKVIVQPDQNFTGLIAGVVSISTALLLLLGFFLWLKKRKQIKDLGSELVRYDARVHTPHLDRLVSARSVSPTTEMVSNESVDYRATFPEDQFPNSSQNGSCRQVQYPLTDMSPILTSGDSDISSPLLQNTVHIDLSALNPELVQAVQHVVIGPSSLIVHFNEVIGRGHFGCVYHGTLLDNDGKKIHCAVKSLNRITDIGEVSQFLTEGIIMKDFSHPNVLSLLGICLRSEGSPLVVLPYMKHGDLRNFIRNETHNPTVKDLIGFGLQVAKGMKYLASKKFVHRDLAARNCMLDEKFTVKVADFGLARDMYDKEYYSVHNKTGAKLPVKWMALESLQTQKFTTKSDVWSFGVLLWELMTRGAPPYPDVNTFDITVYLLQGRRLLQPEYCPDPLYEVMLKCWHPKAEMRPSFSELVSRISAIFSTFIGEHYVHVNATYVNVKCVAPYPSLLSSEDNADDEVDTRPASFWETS

With `Cc1n[nH]c2ccc(C3C(C#N)=C(CCC(C)C)NC(C(F)(F)F)=C3C#N)cc12` (racemic) [Example 1, 2-(3-Methylbutyl)-4-(3-methyl-1H-indazol-5-yl)-6-(trifluoromethyl)-1,4-dihydropyridine-3,5-dicarbonitrile], in series [1], the Papp A→B at 2 h, 2 μM stood at 21.7 ×10⁻⁶ cm/s. In series [2], the IC50 amounted to 16 nM.

Take `Cc1n[nH]c2cc(F)c(C3C(C#N)=C(CCC(F)(F)F)NC(C(F)(F)F)=C3C#N)cc12` (racemic) [Example 7, 4-(6-Fluoro-3-methyl-1H-indazol-5-yl)-2-(trifluoromethyl)-6-(3,3,3-trifluoropropyl)-1,4-dihydro-pyridine-3,5-dicarbonitrile]: in series [1], the Papp A→B at 2 h, 2 μM was 20.4 ×10⁻⁶ cm/s. For the same compound, the IC50 in series [2] stood at 52 nM. Regarding `Cc1n[nH]c2cc(F)c(C3C(C#N)=C(CCC(F)(F)F)NC(C(F)F)=C3C#N)cc12` (racemic) [Example 10, 2-(Difluoromethyl)-4-(6-fluoro-3-methyl-1H-indazol-5-yl)-6-(3,3,3-trifluoropropyl)-1,4-dihydropyridine-3,5-dicarbonitrile], the IC50 in series [2] came out at 26 nM; in series [3], 11 nM. Take `CCC1=C(C#N)C(c2ccc3[nH]nc(C)c3c2)C(C#N)=C(C(F)(F)F)N1` (centres unmarked) [Example 4, 2-Ethyl-4-(3-methyl-1H-indazol-5-yl)-6-(trifluoromethyl)-1,4-dihydropyridine-3,5-dicarbonitrile]: the IC50 in series [3] came out at 11 nM. For `CCC1=C(C#N)C(c2ccc3[nH]nc(C)c3c2)C(C#N)=C(C(F)F)N1` (centres unmarked) [Example 13, 2-(Difluoromethyl)-6-ethyl-4-(3-methyl-1H-indazol-5-yl)-1,4-dihydropyridine-3,5-dicarbonitrile], the Papp A→B at 2 h, 2 μM in series [1] is 25.9 ×10⁻⁶ cm/s. Moreover, the IC50 in series [2] amounted to 9 nM. Consider `Cc1n[nH]c2ccc(C3C(C#N)=C(CCC(F)(F)F)NC(C(F)F)=C3C#N)cc12` (centres unmarked) [Example 14, 2-(Difluoromethyl)-4-(3-methyl-1H-indazol-5-yl)-6-(3,3,3-trifluoropropyl)-1,4-dihydropyridine-3,5-dicarbonitrile], for which, in series [2], the IC50 stood at 17 nM. Same read-out and setting: with `N#CC1=C(CCC(F)(F)F)NC(C(F)(F)F)=C(C#N)C1c1ccc2[nH]ncc2c1` (centres unmarked) [Example 16, 4-(1H-Indazol-5-yl)-2-(trifluoromethyl)-6-(3,3,3-trifluoropropyl)-1,4-dihydro-pyridine-3,5-dicarbonitrile] the figure was 29 nM.
